These results are taken from patent publication US20230372333A1, “COMBINATION THERAPY FOR TREATING CANCER” (ASTRAZENECA AB, priority 2020, published 2023).

Entries after “also recorded” stand apart in the source; their conditions may differ.

In one test the test system is SUM149PT xenograft model. The test is described as follows: Anti-tumour efficacy of AZD5305, carboplatin and combination in SUM149PT xenograft model (Example 3). In kind it is in vivo, mice. The note with it: AZD5305 0.01 mg/kg PO QD, 28 days. On the procedure:
SUM149PT cells (2×10^6) were implanted with 50% Matrigel into mammary fat pad (MFP) of female SCID mice (weight greater than 18 g). Tumours were measured (length×width) two times weekly by bilateral Vernier calliper measurements and tumour volume was calculated using elliptical formula (π/6×width×width×length). Animal bodyweight and tumour condition were monitored throughout the studies. Mice were randomised into treatment groups when mean tumour volume reached approximately 0.3 cm^3. Animals were treated from the day after the randomisation. Control animals were treated orally (PO) once daily (QD) with vehicle (deionised water acidified with HCl to pH 3.5-4) and intraperitoneally (IP) once weekly (QW) with PBS. AZD5305 was dosed PO QD at 0.1, 0.03 or 0.01 mg/kg. Carboplatin was dosed IP once weekly (QW) at 37.5 mg/kg. In the combination group, mice were dosed with carboplatin first, followed by AZD5305 administration within 10 minutes.
Tumour growth inhibition from start of treatment was assessed by comparison of the mean change in tumour volume of the control and treated groups and represented as percent tumour growth inhibition (TGI, when TV≥starting TV) or regression (reg, when TV<starting TV). Mean percent body weight change from start of treatment was also calculated for all the groups. Statistical significance was evaluated using a one-tailed t test. […]

Test [1] has as its system HBCx-9 patient-derived explant model. The test is described as follows: Anti-tumour efficacy of AZD5305, carboplatin and combination in HBCx-9 PDX model (Example 2). In kind it is in vivo. Particulars: carboplatin 50 mg/kg IP QW, 28 days, Nude female mice. The text has this:
HBCx-9 is a patient-derived tumour explant (PDX) model established in XenTech without prior in vitro culture. Tumour fragments were transplanted subcutaneously (SC) onto donor mice. When tumour volume reached 700 to 1764 mm^3, donor mice were sacrificed, and tumours were aseptically excised and dissected. After removing necrotic areas, tumours were cut into fragments measuring approximately 20 mm^3 and transferred in culture medium before grafting SC into the recipient (experimental) Nude female mice. Tumours were measured (length×width) two times weekly by bilateral Vernier calliper measurements and tumour volume was calculated using elliptical formula (π/6×width×width×length). Animal bodyweight and tumour condition were monitored throughout the study. Mice were randomised into treatment groups when mean tumour volume reached approximately 100 mm^3. Animals were treated from the day after the randomisation. […]
Tumour growth inhibition from start of treatment was assessed by comparison of the mean change in tumour volume of the control and treated groups and represented as percent tumour growth inhibition (TGI, when TV≤starting TV) or regression (reg, when TV<starting TV). Mean percent body weight change from start of treatment was also calculated for all the groups. Statistical significance was evaluated using a one-tailed t test. […]

For a further test, the system named is HBCx-9. The note with it: HBCx-9 TNBC PDX model, reference [2]; cited from earlier work.

For `CCc1cc2ncc(CN3CCN(c4ccc(C(=O)NC)nc4)CC3)cc2[nH]c1=O` [AZD5305, 5-[4-[(7-ethyl-6-oxo-5H-1,5-naphthyridin-3-yl)methyl]piperazin-1-yl]-N-methyl-pyridine-2-carboxamide], in the test on SUM149PT xenograft model, the “Tumour Growth Inhibition/Regression (end of treatment)” value is on record as “did not inhibit tumour growth; also recorded: No TGI or regression”. In the case of `N.N.O=C([O-])C1(C(=O)[O-])CCC1.[Pt+2]` [Carboplatin, carboplatin], the “Tumour Growth Inhibition/Regression (end of treatment): TGI” value in test [1] was 88% TGI *** (p ≤ 0.001); in test [1] (listed as carboplatin) it was 88%.

As for `O=C(c1cc(Cc2n[nH]c(=O)c3ccccc23)ccc1F)N1CCN(C(=O)C2CC2)CC1` [olaparib], the “sensitivity of HBCx-9 to monotherapy” value with HBCx-9 is reported as “moderate sensitivity”.
